Data as given in US8501791B2, “1,2,4-thiadiazolium derivatives as melanocortin receptor modulators” (Ortho-McNeil Pharamaceutical, Inc., priority 2001, dated 2013).
Where “and” joins values, the source holds several entries; their conditions need not be identical. Identical values can stand only once.

How the values were obtained:
[1] = system: Food-Deprived Rats (MC-4); assay: Rodent feeding: food intake in food-deprived rats (MC-4); format: in vivo, rat; settings: 10 mg/kg, ip
Procedure: Male Long-Evans rats (180-200 grams) were housed individually and maintained on a once-a-day feeding schedule (i.e. 10 a.m. until 4 p.m.) for five days following quarantine to allow the animals to acclimate to feeding on powdered chow (#5002 PMI Certified Rodent Meal) during the allotted time. The chow was made available in an open jar, anchored in the cage by a wire, with a metal follower covering the food to minimize spillage. Water was available ad-libitum.
Animals were fasted for 18 hours prior to testing. At the end of the fasting period, animals were administered either a test compound or vehicle. Vehicle and test compound were administered either orally (5 mL/kg) 60 minutes prior to the experiment, subcutaneously (1 mL/kg) 30 minutes prior to the experiment, or intraperitoneally (1 mL/kg) 30 minutes prior to the experiment. Test compounds were administered orally as a suspension in aqueous 0.5% methylcellulose-0.4% Tween 80, or intraperitoneally as a solution or suspension in PEG 200; compound concentrations typically ranged from 1 mg/kg to 100 mg/kg, preferably from 10-30 mg/kg. Food intake was measured at 2, 4, and 6 hours after administration by weighing the special jar containing the food before the experiment and at the specified times. Upon completion of the experiment, all animals were given a one-week washout period before re-testing.

human sebocytes = assay: Sebaceous lipid synthesis by sebaceous cells (14C acetate, HPTLC); format: cell-based; settings: seven day treatment
Procedure: Semiconfluent cultures of 3T3 mouse fibroblasts (Swiss Albino mouse, ATCC CCL-92) were treated with mitomycin C (4 μg/ml) for 3 hours, trypsinized and seeded at a density of 2.5×10^5/9.5 cm^2 tissue culture plate in Dulbeccos Minimal Essential Medium (DMEM) containing 10% Colorado Calf Serum, PNC (100 U/ml), STM (100 μg/ml), L glutamine (0.3 mg/ml), sodium pyruvate (1 mM) and nonessential amino acids (100 μM). The cells were incubated at 37° C. for 24 hours prior to their use as a feeder layer for sebocytes.
Human sebocytes were isolated from Dermatome shavings of postoperative pieces of human skin at 0.4-0.8 mm depths (this part of the skin was previously shown to be enriched in sebaceous glands). […] Cells so obtained were filtered through nylon mesh (100μ pore size), centrifuged at 750 RPM, re-suspended in GM and counted. […]
Hormones, mixture of hormones i.e. bovine pituitary extract or compounds to be tested were added to the culture at the beginning of phase III. […] This method relies on visualization of neutral lipids by Nile red and quantitation by reading of fluorescence at 535 nm excitation, 580 nm emission using a plate reader. The lipid synthesis was evaluated by radioactive labeling using ^14C acetate and quantified by Bio Rad Phosphoimager (Molecular Imager, FX) using 4.1 Software. […]

[2] = system: human skin transplanted to the SCID mouse; assay: Human skin-SCID mouse chimera model, sebum production; format: in vivo, SCID mouse with human skin graft
Text: Severe combined immunodeficient mice (SCID) provide an invaluable model for skin xenografting. These animals are devoid of both T and B cell immunity. Human skin grafts in SCID mice retain human cellular tissue components including skin immune cells, i.e. Langerhans cells, macrophages and lymphocytes and also part of the engrafted endothelium (Kaufman R., et al., Exp. Dermatol. 1993:2:209-216, 1993). These properties allow for the study of physiological and/or pathological responses of human skin cells to a test compound.
C.B-17 scid/scid mice (Taconic, Germantown, N.Y.) were used for grafting at 5-6 weeks of age. Full thickness human facial skin was shaved to ˜0.4 mm using a Forman Dermatome. The skin shavings were washed 3 times in antibiotics and antimycotics (penicillin, streptomycin, fungizone) (Life technologies) in Dulbecco's Modified Eagle Medium (DMEM, Life Technologies). Elliptical skin ˜2.0-2.5×1.0-1.5 was grafted onto the prepared graft bed and sutured using 4.0 silk. During surgical procedures the mice were anaesthetized using a mixture of Ketaset (0.16 mg/g body weight) and Rompun (8.0 μg/g body weight).
It is well accepted that the wound healing process of the transplanted skin in the SCID mouse takes one month, at which time the human skin can be used for experimental purposes. […] Maximum size of the glands was observed 3 month post transplantation. The glands retained their capability to produce human specific sebum and the glandular tissue expressed human specific markers including MC5-R. Since glands reached their maximum size at 2-3 month post transplantation the effects of inhibitors of sebum secretion was tested at this point.
Mice at 2-3 month post transplantation with human facial skin were used for the studies. The graft area was treated with the test compound at the desired concentration(s) dissolved in polyethylene glycol-ethanol (20 μl/2 cm^2). Controls were treated with vehicle alone. The test compounds were applied daily, excluding weekends. Sebum secretion was determined using Sebutape at 15 days and 30 days following treatment.
The termination of the experiment was determined by preliminary clinical evaluation of sebum production using SEBUTAPE. At this time human skin grafts were excised and representative samples were collected for histological evaluation. More particularly, 2 mm punch biopsies were prepared and used for evaluation of lipid synthesis and total lipid accumulation in the treated tissues.
The collected 2 mm punch biopsies were placed individually into 96 well plates in Krebs buffer and labeled with 10 μCi of ^14C acetate for 3 hours. Following this labeling period the samples were washed in medium and 5 biopsies pooled, weighed, and used for lipid extraction. The lipid extraction and analysis by HPTLC was the same as described for tissue culture derived cells. […]

[3] = target: T1, melanocortin MC-4 receptor (Homo sapiens, UniProt P32245); assay: Melanocortin MC-4 Receptor Binding Assay (SPA); settings: 125I-NDP-melanocyte stimulating hormone
T1 construct: purchased Receptor Biology Inc
T1 sequence (P32245 whole entry): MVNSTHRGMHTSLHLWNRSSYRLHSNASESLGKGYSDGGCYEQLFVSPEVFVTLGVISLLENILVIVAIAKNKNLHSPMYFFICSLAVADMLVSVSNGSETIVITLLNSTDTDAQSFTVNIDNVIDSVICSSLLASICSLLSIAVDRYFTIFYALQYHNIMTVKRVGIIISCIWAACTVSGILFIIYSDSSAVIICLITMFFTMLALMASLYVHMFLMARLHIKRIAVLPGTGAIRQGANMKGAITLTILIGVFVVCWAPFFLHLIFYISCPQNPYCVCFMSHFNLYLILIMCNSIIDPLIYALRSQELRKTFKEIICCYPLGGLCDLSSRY
Procedure: Radioactive ligand ^125I-NDP-melanocyte stimulating hormone [NEN, 2000 Ci/mmol] was added to each well (48.54 per well, […] final concentration). The plate was then sealed and let stand for 16 hr at 25° C. NDP-Melanocyte stimulating hormone peptide and α-melanocyte stimulating hormone peptide [purchased from Palomar Research Inc, 1 μM] were used as reference inhibitor compounds to define non-specific binding (N). Total binding (T) was defined using 30% DMSO-50 mM HEPES, pH 7.4 buffer. Bound radioactivity for each well (Y), measured at counts per minute (cpm) was measured in a TopCount [Packard, Calif.]. Percent inhibition was calculated as: […]

[4] = system: facial nerve compression, whisker movement; assay: In vivo facial nerve compression model; design: species or system rat; settings: positive control s.c., 70 ug/each 48 hr
Text: The ability of test compound to provide neuro-protective or neuro-regenerative effects was investigated in a facial nerve compression model. Facial nerve motor axons arise exclusively from neurons within the pons in a well-defined nucleus. Facial nerve compression results in retrograde reactions proximal to the lesion site and Wallerian degeneration at its distal part, which causes diminished whisker movement on the lesioned side. […] The right facial nerve was exposed and compressed with forceps for 30 sec at its exit from the stylomastoid foramen. The left facial nerve was sham-operated and served as an internal control. […] After recovery from anesthesia, the rats were randomly divided into groups for dosing with vehicle, αMSH or test compound, with 6 animals per group. αMSH (s.c., 70 ug/each 48 hr) was used as a positive control. Test compounds were dosed p.o. at 20 mg/kg bid for 14 days. Restoration of whisker movement was monitored daily after the operation using two criteria: (1) frequency of whisker movement on the lesioned side relative to the opposite side (sham-operated) which served as the baseline control (2) semi-quantitative measurements (0 to 4+) on strength of the whisker muscles, characterized based on observation of the percentage of moved whiskers, muscle tone of whisker muscles, and the position of the nose. For all observations, the experimental design was blind to the behavioral observer. […] The recovery rate of the whisker movement was expressed as percentage of its own internal control (sham-operated), as listed in Table 8.

rabbit adipocytes = settings: read-out: EC50 lipolytic activity; cited from earlier work
[5] = 30 Day Treatment, topical 0.01%
[6] = 30 Day Treatment, topical 0.05%
[7] = human sebaceous lipids, 11 Day Treatment, topical 0.01%
[8] = human sebaceous lipids, 11 Day Treatment, topical 0.1%
[9] = human sebaceous lipids, 11 Day Treatment, topical 0.5%

With c1ccc(CNc2nc(-c3ccccc3)[n+](-c3ccccc3)s2)cc1 [Compound 84] the “Change in Food Intake 2-6 hrs (%)” value [1] was −24.5% and −17.8%.
With COc1ccccc1-c1nc(Nc2ccccc2)s[n+]1-c1ccccc1OC.[Br-] [Compound 74, 2-(2-methoxyphenyl)-3-(2-methoxyphenyl)-5-phenylamino-[1,2,4]-thiadiazol-2-ium] the “lipid synthesis, radioactively labeled lipids separated by HPTLC” value (human sebocytes) was “inhibition of squalene, cholesterol esters and wax esters”, the “lipid granules in sebocyte cultures, visual” value (human sebocytes; stained cell cultures) was “complete disappearance of lipid granules” and the “% Inh @ 0.01% Cholesterol Ester, Lipid Accumulation” value [2, 5] was 44%. For the same molecule, the “% Inh @ 0.01% Cholesterol, Lipid Accumulation” value [2, 5] was 33%, the “% Inh @ 0.01% Cholesterol, Sebaceous Lipid Synthesis” value [2, 5] was 33% and the “% Inh @ 0.01% Squaline, Lipid Accumulation” value [2, 5] was 82%. The “% Inh @ 0.01% Squaline, Sebaceous Lipid Synthesis” value [2, 5] was 80%, the “% Inh @ 0.01% Triglycerides, Lipid Accumulation” value [2, 5] was 75% and the “% Inh @ 0.01% Triglycerides, Sebaceous Lipid Synthesis” value [2, 5] was 75%. The “% Inh @ 0.01% Wax Esters, Lipid Accumulation” value [2, 5] was 86%, the “% Inh @ 0.01% Wax Esters, Sebaceous Lipid Synthesis” value [2, 5] was 86% and the “% Inh @ 0.05% Cholesterol Ester, Lipid Accumulation” value [2, 6] was 21%. For the same molecule, the “% Inh @ 0.05% Cholesterol, Lipid Accumulation” value [2, 6] was 82%, the “% Inh @ 0.05% Cholesterol, Sebaceous Lipid Synthesis” value [2, 6] was 82% and the “% Inh @ 0.05% Squaline, Lipid Accumulation” value [2, 6] was 73%. For the same molecule, the “% Inh @ 0.05% Squaline, Sebaceous Lipid Synthesis” value [2, 6] was 90%, the “% Inh @ 0.05% Triglycerides, Lipid Accumulation” value [2, 6] was 90% and the “% Inh @ 0.05% Triglycerides, Sebaceous Lipid Synthesis” value [2, 6] was 90%. The “% Inh @ 0.05% Wax Esters, Lipid Accumulation” value [2, 6] was 93%, the “% Inh @ 0.05% Wax Esters, Sebaceous Lipid Synthesis” value [2, 6] was 93% and the “total sebaceous lipid accumulation and de novo synthesis of sebaceous lipids” value ([2]; 30 days of topical treatment with 0.05% and 0.01% solution) was “significantly decreased”. For the same molecule, the “% Inh @ 0.01% Squalene” value [2, 7] was 0%, the “% Inh @ 0.01% Triglycerides” value [2, 7] was 0% and the “% Inh @ 0.01% W/E” value [2, 7] was 25%. The “% Inh @ 0.1% Squalene” value [2, 8] was 70%, the “% Inh @ 0.1% Triglycerides” value [2, 8] was 50% and the “% Inh @ 0.1% W/E” value [2, 8] was 80%. For the same molecule, the “% Inh @ 0.5% Squalene” value [2, 9] was 0%, the “% Inh @ 0.5% Triglycerides” value [2, 9] was 0% and the “% Inh @ 0.5% W/E” value [2, 9] was 10%.
Molecule COc1ccccc1-[n+]1sc(Nc2ccc(Cl)cc2)nc1-c1ccc(C)cc1 [Compound 70] has an IC50 [3] of 566 nM.
For α-MSH, the “Percent Recovery of whisker movement D9” value ([4]; D9) was 2.0 ± 2.8%, the “Percent Recovery of whisker movement D10” value ([4]; D10) was 24.6 ± 15.8% and the “Percent Recovery of whisker movement D11” value ([4]; D11) was 60.1 ± 19.3%. The “Percent Recovery of whisker movement D12” value ([4]; D12) was 93.8 ± 14.0%, the “Percent Recovery of whisker movement D13” value ([4]; D13) was 98.1 ± 5.3% and the “Percent Recovery of whisker movement D14” value ([4]; D14) was 100 ± 0.0%. For the same molecule, the EC50 (rabbit adipocytes) was 3.7 nM.
